“And” between values parts separate entries of the source, which are not always exact repeats. Equal entries are not always repeated.
Tests used:
trypsin = experiment: Phage TRF binding assay of KnotBody phage on immobilised biotinylated trypsin; conditions: EETI-II directly fused to the N-terminus of gene III; TRF
Procedure: Phage display technology facilitates isolation of binders to any given target from large combinatorial repertoires based on proteins and peptides that can be presented on the surface of filamentous phage^105. In order to isolate functional knottin-antibody fusions from the KnotBody libraries multiple rounds of phage display selections on trypsin (cognate antigen for the EETI-II donor) were carried out. Phage particles were prepared by rescuing KnotBody libraries using trypsin cleavable helper phage^102,106 Two rounds of phage display selections were performed on 10 μg/ml biotinylated trypsin immobilised on Streptavidin (for Round-1) or Neutravidin (for round-2) coated Maxisorp™ immunotubes (Thermo Scientific, Cat No. 444202). In both rounds of selection, phage libraries were pre-incubated with streptavidin coated paramagnetic beads (Thermo Fisher Scientific, Cat. No. 11205D). […] Polyclonal phage preparations from round-2 selection outputs were analysed for trypsin binding using a time resolved fluorescence (TRF) binding assay. In this assay, polyclonal phage binding to biotinylated trypsin immobilised on neutravidin (Thermo Fisher Scientific, Cat. No 31000) coated Maxisorp™ plates (Thermo Scientific, Cat. No. 437111) was detected using a mouse anti-M13 antibody (GE Healthcare, Cat. No. 27-9420-01) followed by europium conjugated anti-mouse antibody (Perkin Elmer, Cat. No. AD0124). […]

huASIC1a = molecular target: T1, huASIC1a (Homo sapiens, UniProt P78348); experiment: QPatch automated whole-cell patch-clamp on HEK293 cells stably expressing huASIC1a; format: cell-based; conditions: full blocking 300 nM PcTx1 (positive control) perfused at end of each KnotBody or control incubation, then pH 6.0; one value per preceding sample
T1 sequence (P78348 whole entry, looked up): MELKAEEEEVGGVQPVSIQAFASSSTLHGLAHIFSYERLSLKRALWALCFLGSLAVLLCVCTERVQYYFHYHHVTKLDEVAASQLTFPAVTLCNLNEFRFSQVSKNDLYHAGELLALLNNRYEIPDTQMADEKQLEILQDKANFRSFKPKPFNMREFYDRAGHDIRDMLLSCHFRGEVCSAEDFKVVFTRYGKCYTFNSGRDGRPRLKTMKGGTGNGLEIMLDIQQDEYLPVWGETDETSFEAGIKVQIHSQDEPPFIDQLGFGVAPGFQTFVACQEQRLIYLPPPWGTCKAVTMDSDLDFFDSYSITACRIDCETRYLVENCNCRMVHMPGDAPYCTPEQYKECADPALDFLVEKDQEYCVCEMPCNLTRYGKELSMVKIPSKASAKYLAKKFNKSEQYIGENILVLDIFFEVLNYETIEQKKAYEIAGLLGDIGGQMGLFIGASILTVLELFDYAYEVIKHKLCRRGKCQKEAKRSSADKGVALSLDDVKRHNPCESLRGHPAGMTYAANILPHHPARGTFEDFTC
Procedure: Knottin Kv 1.3 and ASIC1a blockers expressed in the KnotBody format (see examples 6 and 7) were tested for their ability to inhibit the function of the ion channel targets. The effect of these KnotBodies on cells expressing the human Kv 1.3 (huKv1.3) or human ASIC1a channels was assessed using QPatch automated whole-cell patch-clamp electrophysiology (Sophion).
To functionally assess the ASIC1a KnotBodies, HEK293 cells stably expressing huASIC1a (Sophion) were analysed using a QPatch electrophysiology assay in the presence or absence of the KnotBody fusions (using KB_A12 as a recipient and replacing the original EETI-II donor as shown in Table 8). The “parental” KB_A12 with the EETI-II donor was used as a negative control. Internal and external physiological solutions were freshly prepared prior to the assay. […]
At the end of each KnotBody incubation and subsequent ASIC1a current activation, a full blocking concentration (300 nM) of the ASIC1a knottin inhibitor PcTx1 (positive control) was perfused onto the cell recording and a final activating pH 6.0 external solution was applied. The percentage remaining signal between activating pH 6.0 baseline (i.e. pre-KnotBody) and post-KnotBody incubation was determined.

## EETI-II [reference compound]
trypsin
  binding to trypsin of phage: no detectable binding to trypsin

## PcTx1: ASIC1a knottin inhibitor, positive control at 300 nM; SEQ ID NO: 20
huASIC1a
  % current remaining PcTx1 (300 nM): 2% and 1.9% and 2.7% and 3.8% and 3.6%
